Measurements: ChEMBL document CHEMBL4325844, “Development of 2-amino-4-phenylthiazole analogues to disrupt myeloid differentiation factor 88 and prevent inflammatory responses in acute lung injury” (Eur J Med Chem, 2019)
Active and inactive are the calls of the source. No cut-off for these calls is given here.

Legend:
Peritoneal macrophage [1] = test: Antiinflammatory activity in ICR mouse primary peritoneal macrophages assessed as inhibition of LPS-induced IL-6 production at 20 uM preincubated for 60 mins followed by LPS stimulation and measured after 24 hrs by ELISA relative to control; type: functional
Peritoneal macrophage [2] = test: Antiinflammatory activity in ICR mouse primary peritoneal macrophages assessed as inhibition of LPS-induced TNFalpha production at 20 uM preincubated for 60 mins followed by LPS stimulation and measured after 24 hrs by ELISA relative to control; type: functional
Peritoneal macrophage [3] = test: Antiinflammatory activity in ICR mouse primary peritoneal macrophages assessed as inhibition of LPS-induced TNFalpha production preincubated for 2 hrs followed by LPS stimulation and measured after 22 hrs by ELISA; type: functional, cell-based
[4] = Cytotoxicity against ICR mouse primary peritoneal macrophages assessed as cell viability at 20 uM after 24 hrs by MTT assay relative to control; type: cell-based, Peritoneal macrophage; conditions: read-out: Activity
[5] = Cytotoxicity against rat NRK cells assessed as cell viability at 20 uM after 24 hrs by MTT assay relative to control; type: cell-based; conditions: read-out: Activity
Peritoneal macrophage [6] = test: Antiinflammatory activity in ICR mouse primary peritoneal macrophages assessed as inhibition of LPS-induced IL-6 production preincubated for 2 hrs followed by LPS stimulation and measured after 22 hrs by ELISA; type: functional, cell-based
[7] = Cytotoxicity against rat H9c2 cells assessed as cell viability at 20 uM after 24 hrs by MTT assay relative to control; type: cell-based; conditions: read-out: Activity
Mus musculus [8] = test: Antiinflammatory activity in LPS-induced C57/BL6 mouse model of acute lung injury assessed as reduction in TNFalpha level in serum at 10 mg/kg, ip pretreated for 30 mins followed by LPS challenge measured after 6 hrs by ELISA; type: functional, organism-based
[9] = target: T1, Myeloid differentiation primary response protein MyD88 (Homo sapiens, UniProt Q99836); test: Inhibition of LPS-induced HA-tagged MyD88 (unknown origin) interaction with FLAG-tagged MyD88 (unknown origin) expressed in HEK293 cells at 20 uM after 48 hrs by co-immunoprecipitation method; type: cell-based
[10] = target: Myeloid differentiation primary response protein MyD88 (Mus musculus) (UniProt P22366); test: Inhibition of MyD88 in ICR mouse primary peritoneal macrophages assessed as reduction in LPS-induced ERK phosphorylation at 20 uM preincubated for 30 mins followed by LPS-stimulation and measured after 20 mins by Western blot analysis
Mus musculus [11] = test: Antiinflammatory activity in LPS-induced C57/BL6 mouse model of acute lung injury assessed as reduction in IL6 level in serum at 10 mg/kg, ip pretreated for 30 mins followed by LPS challenge measured after 6 hrs by ELISA; type: functional, organism-based
Mus musculus [12] = test: Antiinflammatory activity in LPS-induced C57/BL6 mouse model of acute lung injury assessed as reduction in TNFalpha level in BALF at 10 mg/kg, ip pretreated for 30 mins followed by LPS challenge measured after 6 hrs by ELISA; type: functional, organism-based
[13] = target: T1, Myeloid differentiation primary response protein MyD88; test: Binding affinity to recombinant human MyD88 TIR domain (157 to 296 residues) expressed in Escherichia coli BL21(DE3) by surface plasmon resonance analysis
[14] = target: Myeloid differentiation primary response protein MyD88 (Mus musculus) (UniProt P22366); test: Inhibition of MyD88 in ICR mouse primary peritoneal macrophages assessed as reduction in LPS-induced JNK phosphorylation at 20 uM preincubated for 30 mins followed by LPS-stimulation and measured after 20 mins by Western blot analysis
Mus musculus [15] = test: Antiinflammatory activity in LPS-induced C57/BL6 mouse model of acute lung injury assessed as reduction in lung wet/dry ratio at 10 mg/kg, ip pretreated for 30 mins followed by LPS challenge measured after 6 hrs; type: functional, organism-based
Mus musculus [16] = test: Antiinflammatory activity in LPS-induced C57/BL6 mouse model of acute lung injury assessed as reduction in IL6 level in BALF at 10 mg/kg, ip pretreated for 30 mins followed by LPS challenge measured after 6 hrs by ELISA; type: functional, organism-based
[17] = target: Myeloid differentiation primary response protein MyD88 (Mus musculus) (UniProt P22366); test: Inhibition of MyD88 in ICR mouse primary peritoneal macrophages assessed as reduction in LPS-induced p38 MAPK phosphorylation at 20 uM preincubated for 30 mins followed by LPS-stimulation and measured after 20 mins by Western blot analysis

Sequence of Myeloid differentiation primary response protein MyD88 (Mus musculus) (P22366 whole entry): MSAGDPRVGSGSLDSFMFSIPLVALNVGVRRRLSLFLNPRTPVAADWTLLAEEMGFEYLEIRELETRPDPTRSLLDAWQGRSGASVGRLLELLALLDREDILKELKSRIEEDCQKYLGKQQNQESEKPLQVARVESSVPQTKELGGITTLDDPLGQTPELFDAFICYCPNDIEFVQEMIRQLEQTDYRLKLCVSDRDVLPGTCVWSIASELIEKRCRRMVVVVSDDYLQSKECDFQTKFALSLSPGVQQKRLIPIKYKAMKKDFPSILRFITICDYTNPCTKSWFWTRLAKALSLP
T1 sequence (Q99836 whole entry): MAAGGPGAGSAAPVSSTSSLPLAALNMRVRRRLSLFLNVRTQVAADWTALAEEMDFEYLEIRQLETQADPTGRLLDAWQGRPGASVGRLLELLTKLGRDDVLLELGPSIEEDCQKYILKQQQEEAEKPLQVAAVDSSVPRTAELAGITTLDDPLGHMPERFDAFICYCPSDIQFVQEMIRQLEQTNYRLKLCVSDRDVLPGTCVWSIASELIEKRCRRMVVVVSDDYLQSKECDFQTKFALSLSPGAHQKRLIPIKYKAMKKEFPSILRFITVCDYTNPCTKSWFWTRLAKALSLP

Row | Structure (SMILES) | inhibition at 20 µM (Peritoneal macrophage [1]) [%] | inhibition at 20 µM (Peritoneal macrophage [2]) [%] | also measured
1 | O=C(CCN1CCN(Cc2cccc([N+](=O)[O-])c2)CC1)Nc1nc(-c2ccc(C3CCCCC3)cc2)cs1 | 28.5 | 19.8 | 
2 | COc1ccc(-c2csc(NC(=O)CCN3CCN(Cc4cccc([N+](=O)[O-])c4)CC3)n2)cc1 | 82 | 73.8 | 
3 | O=C(CCN1CCN(Cc2cccc([N+](=O)[O-])c2)CC1)Nc1nc(-c2ccc(F)c(F)c2)cs1 | 86.7 | 61.8 | 
4 | N#Cc1ccc(-c2csc(NC(=O)CCN3CCN(Cc4cccc([N+](=O)[O-])c4)CC3)n2)cc1 | 50.6 | 49.7 | 
5 | Cc1ccc(CN2CCN(CCC(=O)Nc3nc(-c4ccccc4)cs3)CC2)cc1 | 67.6 | 27.1 | 
6 | O=C(CCN1CCN(Cc2ccc(F)cc2)CC1)Nc1nc(-c2ccccc2)cs1 | 70.9 | 47.9 | 
7 | O=C(CCN1CCN(Cc2ccc([N+](=O)[O-])cc2)CC1)Nc1nc(-c2ccccc2)cs1 | 76.8 | 56.7 | 
8 | O=C(CCN1CCN(Cc2cccc([N+](=O)[O-])c2)CC1)Nc1nc(-c2ccccc2Br)cs1 | 86.9 | 83.2 | IC50 (Peritoneal macrophage [3]): 5.15 µM; inhibition (Peritoneal macrophage [3]): Dose-dependent effect; viability at 24 h, 20 µM [4]: > 80%; viability at 24 h, 20 µM [5]: > 80%; IC50 (Peritoneal macrophage [6]): 4.65 µM; inhibition (Peritoneal macrophage [6]): Dose-dependent effect; viability at 24 h, 20 µM [7]: > 80%
9 | O=C(CCN1CCN(Cc2cccc([N+](=O)[O-])c2)CC1)Nc1nc(-c2ccc([N+](=O)[O-])cc2)cs1 | 58.8 | 32.4 | 
10 | O=C(CCN1CCN(CCc2ccccc2)CC1)Nc1nc(-c2ccccc2)cs1 | 27.4 | 9.1 | 
11 | O=C(CCN1CCN(S(=O)(=O)c2cc(Cl)cc(Cl)c2)CC1)Nc1nc(-c2ccccc2)cs1 | 55.6 | 49.1 | 
12 | CCOc1ccc(-c2csc(NC(=O)CCN3CCN(Cc4cccc([N+](=O)[O-])c4)CC3)n2)cc1 | 85.3 | 74.3 | 
13 | Nc1cccc(CN2CCN(CCC(=O)Nc3nc(-c4ccccc4)cs3)CC2)c1 | 11.5 | 13.6 | 
14 | COc1ccc(S(=O)(=O)N2CCN(CCC(=O)Nc3nc(-c4ccccc4)cs3)CC2)cc1OC | 49.5 | 37.2 | 
15 | O=C(CCN1CCN(Cc2cccc([N+](=O)[O-])c2)CC1)Nc1nc(-c2ccccc2)cs1 | 81.5 | 64.2 | 
16 | Cc1ccc(-c2csc(NC(=O)CCN3CCN(Cc4cccc([N+](=O)[O-])c4)CC3)n2)cc1 | 75.1 | 79 | 
17 | O=C(CCN1CCN(S(=O)(=O)c2cccc(Cl)c2)CC1)Nc1nc(-c2ccccc2)cs1 | 61.1 | 32.8 | 
18 | COc1ccc(S(=O)(=O)N2CCN(CCC(=O)Nc3nc(-c4ccccc4)cs3)CC2)cc1 | 35.6 | 33.1 | 
19 | Nc1ccc(CN2CCN(CCC(=O)Nc3nc(-c4ccccc4)cs3)CC2)cc1 | 45.8 | 10.1 | 
20 | O=C(CCN1CCN(Cc2cccc([N+](=O)[O-])c2)CC1)Nc1nc2ccccc2s1 | 64.2 | 63.6 | 
21 | CC(C)(C)c1ccc(CN2CCN(CCC(=O)Nc3nc(-c4ccccc4)cs3)CC2)cc1 | 51.8 | 12 | 
22 | O=C(CCN1CCN(S(=O)(=O)c2ccccc2)CC1)Nc1nc(-c2ccccc2)cs1 | 29.9 | 17.6 | 
23 | O=C(CCN1CCN(S(=O)(=O)c2ccc([N+](=O)[O-])cc2)CC1)Nc1nc(-c2ccccc2)cs1 | 40.6 | 38.6 | 
24 | O=C(CCN1CCN(S(=O)(=O)c2ccc(Cl)cc2)CC1)Nc1nc(-c2ccccc2)cs1 | 70.3 | 37.6 | 

Row | Structure (SMILES) | inhibition at 20 µM (Peritoneal macrophage [1]) [%] | inhibition at 20 µM (Peritoneal macrophage [2]) [%] | also measured
25 | N#Cc1ccc(CN2CCN(CCC(=O)Nc3nc(-c4ccccc4)cs3)CC2)cc1 | 67.3 | 33.7 | 
26 | O=C(CCN1CCN(Cc2cccc([N+](=O)[O-])c2)CC1)Nc1nc(-c2ccc(Cl)cc2)cs1 | 77.6 | 58.3 | 
27 | N#Cc1cccc(CN2CCN(CCC(=O)Nc3nc(-c4ccccc4)cs3)CC2)c1 | 78.3 | 52.3 | 
28 | O=C(CCN1CCN(Cc2ccc3ccccc3c2)CC1)Nc1nc(-c2ccccc2)cs1 | 18.3 | 2.41 | 
29 | O=C(CCN1CCN(Cc2ccc(C(F)(F)F)cc2)CC1)Nc1nc(-c2ccccc2)cs1 | 69 | 55.3 | 
30 | COc1ccc(-c2csc(NC(=O)CCN3CCN(Cc4cccc([N+](=O)[O-])c4)CC3)n2)cc1OC | 90.2 | 87.6 | IC50 (Peritoneal macrophage [3]): 1.77 µM; inhibition (Peritoneal macrophage [3]): Dose-dependent effect; viability at 24 h, 20 µM [4]: > 80%; viability at 24 h, 20 µM [5]: > 80%; IC50 (Peritoneal macrophage [6]): 3.15 µM; inhibition (Peritoneal macrophage [6]): Dose-dependent effect; viability at 24 h, 20 µM [7]: > 80%
31 | COC(=O)c1csc(NC(=O)CCN2CCN(Cc3cccc([N+](=O)[O-])c3)CC2)n1 | 56.3 | 31.7 | 
32 | O=C(CCN1CCN(Cc2cccc(F)c2)CC1)Nc1nc(-c2ccccc2)cs1 | 68.5 | 40.5 | 
33 | COc1ccc(CN2CCN(CCC(=O)Nc3nc(-c4ccccc4)cs3)CC2)cc1 | 75.3 | 40.2 | 
34 | O=C(CCN1CCN(Cc2cccc(Cl)c2)CC1)Nc1nc(-c2ccccc2)cs1 | 74.5 | 48.8 | 
35 | O=C(CCN1CCN(Cc2cccc([N+](=O)[O-])c2)CC1)Nc1nc(-c2cccc(Br)c2)cs1 | 73 | 52.5 | 
36 | O=C(CCN1CCN(Cc2cccc([N+](=O)[O-])c2)CC1)Nc1nc(-c2ccco2)cs1 | 78.7 | 65.2 | 
37 | CN1CCN(CCC(=O)Nc2nc(-c3ccccc3)cs2)CC1 |  |  | inhibition (Peritoneal macrophage [1]): inactive; inhibition (Peritoneal macrophage [2]): inactive
38 | O=C(CCN1CCN(Cc2ccccc2)CC1)Nc1nc(-c2ccccc2)cs1 | 69.3 | 47 | Activity (Mus musculus [8]): Active; inhibition [9]: Active; inhibition [10]: Active; Activity (Mus musculus [11]): Active; Activity (Mus musculus [12]): Active; IC50 (Peritoneal macrophage [3]): 11.9 µM; Ka [13]: 3340 M⁻¹ s⁻¹; Kd [13]: 180 µM; Kdiss [13]: 0.6 s⁻¹; inhibition [14]: Active; IC50 (Peritoneal macrophage [6]): 10.2 µM; Activity (Mus musculus [15]): Active; Activity (Mus musculus [16]): Active; inhibition [17]: Active
39 | O=C(CCN1CCN(Cc2ccc(Cl)cc2)CC1)Nc1nc(-c2ccccc2)cs1 | 63.4 | 52.8 | 
40 | O=C(CCN1CCN(Cc2c(Cl)cccc2Cl)CC1)Nc1nc(-c2ccccc2)cs1 | 73.8 | 37.1 | 
41 | O=C(CCN1CCN(Cc2cccc([N+](=O)[O-])c2)CC1)Nc1nc(-c2ccc(Br)cc2)cs1 | 81 | 71.9 | 
42 | O=C(CCN1CCN(S(=O)(=O)c2ccc(C(F)(F)F)cc2)CC1)Nc1nc(-c2ccccc2)cs1 |  | 2.54 | inhibition (Peritoneal macrophage [1]): inactive
43 | O=C(CCN1CCN(Cc2cccc([N+](=O)[O-])c2)CC1)Nc1nc(-c2cccc([N+](=O)[O-])c2)cs1 | 76.3 | 51.2 | 
44 | O=C(CCN1CCN(Cc2cccc([N+](=O)[O-])c2)CC1)Nc1nc(C2CCC2)cs1 | 66.3 | 61.4 | 
45 | COc1cccc(CN2CCN(CCC(=O)Nc3nc(-c4ccccc4)cs3)CC2)c1 | 53.8 | 36.1 | 
46 | COc1cc(CN2CCN(CCC(=O)Nc3nc(-c4ccccc4)cs3)CC2)cc(OC)c1 | 57 | 34.2 | 
47 | O=C(CCN1CCN(Cc2cccc([N+](=O)[O-])c2)CC1)Nc1nc(-c2ccc(F)cc2)cs1 | 86.4 | 65.6 | 
